“And” between values parts separate entries of the source, which are not always exact repeats. Equal values may be shown once.

One assay deals with T1, hA1 AR (Homo sapiens, UniProt P30542).
T1 construct: host or cells: CHO-A1 (CHO cells expressing hA1 AR)
T1 sequence (P30542 1-326): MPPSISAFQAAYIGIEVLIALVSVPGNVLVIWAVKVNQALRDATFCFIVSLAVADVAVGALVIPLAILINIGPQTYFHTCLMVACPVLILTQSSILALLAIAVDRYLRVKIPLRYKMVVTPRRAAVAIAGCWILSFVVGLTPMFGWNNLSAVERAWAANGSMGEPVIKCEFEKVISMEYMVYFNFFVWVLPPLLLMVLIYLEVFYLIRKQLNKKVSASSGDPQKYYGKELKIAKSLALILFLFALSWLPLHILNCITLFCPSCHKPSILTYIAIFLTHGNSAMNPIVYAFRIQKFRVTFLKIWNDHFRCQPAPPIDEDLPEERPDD
Nature of the assay: Radioligand competition binding assay at hA1 AR. Conditions: for inhibition at 10 µM / Percentage Inhibition (%) at 10 μM, hA1 AR: 10 μM compound; for inhibition at 10 µM / Ki / Percentage Inhibition (%) at 10 μM, hA1 AR: [3H]DPCPX, CHO cells; for inhibition at 10 µM: read-out: Percentage Inhibition (%) at 10 μM, hA1 AR. The procedure: (§1) All the synthesized compounds were screened with radioligand binding assays at hARs. First, the percentage of inhibition was measured by treatment of each hAR subtype with 10 μM of each compound (Table 1).
(§2) hA1, hA2A, and hA3 AR competition binding experiments were carried out in a multiscreen GF/C 96-well plate (Millipore, Madrid, Spain) pretreated with binding buffer (Hepes 20 mM, NaCl 100 mM, MgCl2 10 mM, 2 U/mL adenosine deaminase, pH = 7.4 for hA1 AR; Tris-HCl 50 mM, EDTA 1 mM, MgCl2 10 mM, 2 U/mL adenosine deaminase, pH = 7.4 for hA2A AR; and Tris-HCl 50 mM, EDTA 1 mM, MgCl2 5 mM, 2 U/mL adenosine deaminase, pH = 7.4 for hA3 AR, respectively). In each well was incubated 5 µg of membranes from Euroscreen CHO-A1 cell line, 5µg of membranes from Hela-A2A cell line, or 30µg of membranes from Hela-A3 cell line and prepared in laboratory: 1 nM [^3H]-DPCPX (140 Ci/mmol, 1 mCi/Ml, Perkin Elmer NET974001MC) for hA1 AR; 1 nM [^3H]-ZM241385 (50 Ci/mmol, 1 mCi/mL, ARC-ITISA 0884) for hA2A AR; and 10 nM [^3H]-NECA (29.6 Ci/mmol, 1 mCi/mL, Perkin Elmer NET811250UC) for hA3 AR, respectively; and the compounds studied according to standard protocol. Non-specific binding was determined in the presence of R-PIA 10 µM (Sigma P4532) for hA1 AR; of NECA 50 µM (Sigma E2387) for hA2A AR; and of R-PIA 100 µM (Sigma P4532) for hA3 AR, respectively. The reaction mixture (Vt: 200 µL/well) was incubated at 25 °C for 60 min (hA1 AR), 30min (hA2A AR), or 180min (hA3 AR); whereafter it was filtered and washed four times (hA1 and hA2A AR) or six times (hA3 AR) with 250 μL wash buffer (Hepes 20 mM, NaCl 100 mM, MgCl2 10 mM pH = 7.4, for hA1 AR; Tris-HCl 50 mM, EDTA 1 mM, MgCl2 10 mM, pH = 7.4, for hA2A AR; and Tris-HCl 50mM pH = 7.4, for hA3 AR, respectively) before being measured in a microplate beta scintillation counter (MicrobetaTrilux, PerkinElmer, Madrid, Spain).
For orientation: Displacement assays read how much labelled ligand stays bound in the presence of the test substance.

The next assay deals with T2, hA2A AR (Homo sapiens, UniProt P29274).
T2 construct: expressed in transfected cells; host or cells: Hela-A2A cell line
The experiment in a line: Radioligand competition binding assay at hA2A AR. To be noted: 10 μM compound, [3H]ZM241385, Hela cells; for inhibition at 10 µM: read-out: Percentage Inhibition (%) at 10 μM, hA2A AR. As for the experimental part: as §1, §2

The target in a further assay is T3, hA2B AR (Homo sapiens, UniProt P29275).
T3 construct: host or cells: HEK-A2B (HEK-293T-A2B) cell line
T3 sequence (P29275 1-332): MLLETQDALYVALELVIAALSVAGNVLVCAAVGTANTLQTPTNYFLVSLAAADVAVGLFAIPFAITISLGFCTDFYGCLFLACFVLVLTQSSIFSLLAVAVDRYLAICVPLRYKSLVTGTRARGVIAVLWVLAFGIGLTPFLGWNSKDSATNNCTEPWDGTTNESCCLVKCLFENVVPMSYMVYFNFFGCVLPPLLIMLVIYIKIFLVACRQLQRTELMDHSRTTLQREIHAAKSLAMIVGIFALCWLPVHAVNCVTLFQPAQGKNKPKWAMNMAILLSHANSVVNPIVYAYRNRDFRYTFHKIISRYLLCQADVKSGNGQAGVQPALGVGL
The experiment in a line: Radioligand competition binding assay at hA2B AR. To be noted: 10 μM compound; [3H]DPCPX; HEK-293 cells; read-out: Percentage Inhibition (%) at 10 μM, hA2B AR. The procedure:
as §1
hA2B AR competition binding experiments were carried out in a multiscreen GF/C 96-well plate. In each well was incubated 25 µg of membranes from Euroscreen HEK-A2B cell line and prepared in laboratory, 25 nM [^3H]-DPCPX (140 Ci/mmol, 1 mCi/mL, Perkin Elmer NET974001MC) and compounds studied according to standard protocol. Non-specific binding was determined in the presence of NECA 1000 µM (Sigma E2397). The reaction mixture (Vt: 250 µL/well) was incubated at 25°C for 30 min, 200 µL was transferred to GF/C 96-well plate (Millipore, Madrid, Spain), and pretreated with binding buffer (Tris-HCl 50 Mm, EDTA 1 mM, MgCl2 5 mM, Bacitracin […], adenosine deaminase 2 U/Ml, pH = 6.5). It was then filtered and washed four times with 250 μL wash buffer (Tris-HCl 50 mM, EDTA 1 mM, MgCl2 5 mM, pH = 6.5), before being measured in a microplate beta scintillation counter (MicrobetaTrilux, PerkinElmer, Madrid, Spain).

A further assay has as its target T4, hA3 AR (Homo sapiens, UniProt P0DMS8).
T4 sequence (P0DMS8 1-318): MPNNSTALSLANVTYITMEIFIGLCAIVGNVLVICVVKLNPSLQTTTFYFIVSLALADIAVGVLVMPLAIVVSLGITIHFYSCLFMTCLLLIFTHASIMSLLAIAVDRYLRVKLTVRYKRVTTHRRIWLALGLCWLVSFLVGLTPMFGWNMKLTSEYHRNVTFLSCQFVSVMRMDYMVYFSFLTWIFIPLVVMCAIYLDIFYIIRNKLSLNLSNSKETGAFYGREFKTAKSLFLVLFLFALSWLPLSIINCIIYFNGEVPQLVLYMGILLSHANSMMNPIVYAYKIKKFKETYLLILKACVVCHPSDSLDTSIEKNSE
Nature of the assay: Radioligand competition binding assay at hA3 AR. Set-up: expressed in transfected cells; host or cells: Hela-A3 cell line. To be noted: [3H]NECA; for inhibition at 10 µM: read-out: Percentage Inhibition (%) at 10 μM, hA3 AR. The procedure:
as §1, §2

T2 sequence (P29274 whole entry): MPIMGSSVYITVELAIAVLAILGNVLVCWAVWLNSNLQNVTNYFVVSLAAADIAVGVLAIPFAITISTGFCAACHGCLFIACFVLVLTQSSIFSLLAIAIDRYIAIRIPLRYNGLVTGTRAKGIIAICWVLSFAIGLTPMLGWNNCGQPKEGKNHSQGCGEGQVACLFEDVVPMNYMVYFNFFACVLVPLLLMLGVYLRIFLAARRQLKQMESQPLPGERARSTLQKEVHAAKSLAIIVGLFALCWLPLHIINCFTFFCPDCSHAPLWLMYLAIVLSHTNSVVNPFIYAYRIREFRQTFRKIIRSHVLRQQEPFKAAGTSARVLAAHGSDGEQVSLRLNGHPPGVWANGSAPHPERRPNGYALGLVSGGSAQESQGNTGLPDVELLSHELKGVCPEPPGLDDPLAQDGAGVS

With `COc1ccc(Nc2nc(N)nc(-c3ccc(C(F)(F)F)cc3)n2)cc1F` [Compound 11d, N^2-(3-fluoro-4-methoxyphenyl)-6-[4-(trifluoromethyl)phenyl]-1,3,5-triazine-2,4-diamine], the inhibition at 10 µM stood at 74 ± 1% at hA1 AR, 30 ± 1% on hA2A AR, 93 ± 3% at hA2B AR and 79 ± 1% on hA3 AR (10 μM compound).

Take `COc1ccc(Nc2nc(N)nc(-c3ccc(O)cc3)n2)cc1F` [Compound 9a, 4-{4-amino-6-[(3-fluoro-4-methoxyphenyl)amino]-1,3,5-triazin-2-yl}phenol]: the inhibition at 10 µM on hA1 AR was 99 ± 1%; on hA2A AR, 58 ± 1%; at hA2B AR it was 72 ± 2%; at hA3 AR (10 μM compound), greater than 95%. Besides, the Ki turned out to be 0.139 µM on hA1 AR and 0.0555 µM at hA3 AR. Besides, on hA1 AR (ratio of Ki hA1 AR to Ki hA3 AR), the “Selectivity (hA1 AR:hA3 AR)” value was 2.5 and 2.51. At hA2A AR (10 µM), the “Percentage Inhibition (%) at 10 μM, hA2A AR” value was 56 ± 3%. Besides, at hA3 AR (10 μM compound, 10 µM), the “Percentage Inhibition (%) at 10 μM, hA3 AR” value is 97 ± 1%.

As to `CCOC(=O)c1ccc(-c2nc(N)nc(Nc3ccc(OC)c(F)c3)n2)cc1` [Compound 11g, ethyl-4-{4-amino-6-[(3-fluoro-4-methoxyphenyl)amino]-1,3,5-triazin-2-yl}benzoate], the inhibition at 10 µM on hA1 AR amounted to 56 ± 1%; on hA2A AR, 48 ± 6%; at hA2B AR it was 35 ± 2%; at hA3 AR (10 μM compound), 78 ± 3%.

With `COc1ccc(Nc2nc(N)nc(-c3ccc(C#N)cc3)n2)cc1F` [Compound 11e, 4-{4-amino-6-[(3-fluoro-4-methoxyphenyl)amino]-1,3,5-triazin-2-yl}benzonitrile], the inhibition at 10 µM was determined as 45 ± 5% on hA1 AR, 50 ± 2% on hA2A AR, 52 ± 1% at hA2B AR and 72 ± 3% at hA3 AR (10 μM compound).

`COc1ccc(Nc2nc(N)nc(-c3ccc(F)c([N+](=O)[O-])c3)n2)cc1F` [Compound 11i, 6-(4-fluoro-3-nitrophenyl)-N^2-(3-fluoro-4-methoxyphenyl)-1,3,5-triazine-2,4-diamine]: on hA1 AR, the “Percentage Inhibition (%) at 10 μM, hA1 AR” value is “inactive”. The inhibition at 10 µM came to 53 ± 1% on hA1 AR, 57 ± 2% at hA2A AR, 72 ± 6% at hA2B AR and 83 ± 1% on hA3 AR (10 μM compound).

With `COc1ccc(Nc2nc(N)nc(-c3ccc(OC(F)(F)F)cc3)n2)cc1F` [Compound 11c, N^2-(3-fluoro-4-methoxyphenyl)-6-[4-(trifluoromethoxy)phenyl]-1,3,5-triazine-2,4-diamine], the inhibition at 10 µM on hA1 AR worked out at 48 ± 4%; at hA2A AR, 81 ± 1%; at hA2B AR, 27 ± 6%; at hA3 AR (10 μM compound), 60 ± 1%.

Consider `COC(=O)c1ccc(-c2nc(N)nc(Nc3ccc(OC)c(F)c3)n2)cc1` [Compound 11f, methyl-4-{4-amino-6-[(3-fluoro-4-methoxyphenyl)amino]-1,3,5-triazin-2-yl}benzoate], for which the inhibition at 10 µM was 52 ± 1% at hA1 AR, 35 ± 6% on hA2A AR, 55 ± 2% at hA2B AR and 85 ± 1% at hA3 AR (10 μM compound).

Take `Nc1nc(Nc2ccc(N3CCCCC3)cc2)nc(-c2ccc(O)cc2)n1` [Compound 9f, 4-(4-amino-6-{[4-(piperidin-1-yl)phenyl]amino}-1,3,5-triazin-2-yl)phenol]: the inhibition at 10 µM on hA1 AR was found to be 28 ± 1%; on hA2A AR, 28 ± 3%; on hA2B AR it was 44 ± 4%; on hA3 AR (10 μM compound), 38 ± 1%.

As to `Cc1ccc(Nc2nc(N)nc(-c3ccc(O)cc3)n2)c(C)c1` [Compound 9g, 4-{4-amino-6-[(2,4-dimethylphenyl)amino]-1,3,5-triazin-2-yl}phenol], at hA1 AR (10 µM), the “Percentage Inhibition (%) at 10 μM, hA1 AR” value was determined as 99 ± 1%. The inhibition at 10 µM is greater than 95% at hA1 AR, 80 ± 4% at hA2A AR, 47 ± 2% on hA2B AR and 91 ± 1% at hA3 AR (10 μM compound). Moreover, the Ki on hA1 AR is 0.116 µM.

In general, inhibition refers to the share of the control response that was lost under treatment. What is called Ki is a measure of affinity in units of concentration, obtained from inhibition or displacement. A lower Ki goes with tighter binding.

Values taken from publication PMC9268102, “Design, Synthesis and Biological Evaluation of 1,3,5-Triazine Derivatives Targeting hA1 and hA3 Adenosine Receptor” (Molecules, 2022).
